The target of experiment [1] is T1, Beta-secretase 1 (Homo sapiens, UniProt P56817). The experiment in a line: Inhibition of BACE1 in human SHSY5Y cells expressing APP NFEV and wild-type alpha-cleavage site. In kind it is cell-based, SH-SY5Y.
Experiment [2] addresses T1, Beta-secretase 1. The experiment in a line: Inhibition of BACE1 in HEK293 cells expressing modified BACE cleavage sequence of APP, NFEV and K612V mutation. In kind it is cell-based.
The target in experiment [3] is T1, Beta-secretase 1. The experiment in a line: Inhibition of human recombinant BACE-1 using acetyl-C(W8044-Eu)-EVNLDAEFK-QSY7 as substrate by TR-FRET assay.
The target in experiment [4] is T1, Beta-secretase 1. The experiment is described as follows: Inhibition of human recombinant BACE-1 using acetyl-C(W8044-Eu)-EVNLDAEFK-QSY7 as substrate at 100 uM by TR-FRET assay.

Molecules are shown by their SMILES. Calls of active or inactive are those of the source. No cut-off for these calls is given here. Bounds are passed on as bounds.

T1 sequence (P56817 whole entry): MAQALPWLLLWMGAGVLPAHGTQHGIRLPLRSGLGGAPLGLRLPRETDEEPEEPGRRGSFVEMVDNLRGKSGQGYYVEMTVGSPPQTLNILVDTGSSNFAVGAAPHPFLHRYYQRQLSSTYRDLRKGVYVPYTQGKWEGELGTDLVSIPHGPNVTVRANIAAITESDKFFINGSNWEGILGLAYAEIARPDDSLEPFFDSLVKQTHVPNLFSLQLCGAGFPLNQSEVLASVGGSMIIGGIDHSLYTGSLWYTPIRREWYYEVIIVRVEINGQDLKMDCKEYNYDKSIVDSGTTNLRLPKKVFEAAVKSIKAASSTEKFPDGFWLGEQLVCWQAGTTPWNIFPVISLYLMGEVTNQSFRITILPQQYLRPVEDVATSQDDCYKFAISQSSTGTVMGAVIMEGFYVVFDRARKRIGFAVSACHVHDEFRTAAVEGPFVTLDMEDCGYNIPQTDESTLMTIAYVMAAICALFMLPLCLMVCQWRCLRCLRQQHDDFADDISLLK

As for `O=C(N[C@@H](C(=O)Nc1cc(C(O)CNCc2ccccc2)ccc1C(=O)c1ccccc1)c1ccccc1)OCc1ccccc1` (stereo partly drawn), the IC50 on Beta-secretase 1 [1] is above 1.2 µM; on Beta-secretase 1 [2], above 2.6 µM; on Beta-secretase 1 [3], 2.6 µM.

Turning to `CC(C)(C)OC(=O)N1CCN(CC(O)c2ccc(C(=O)c3ccccc3)c(NC(=O)[C@H](NC(=O)OCc3ccccc3)c3ccccc3)c2)CC1` (stereo partly drawn), the IC50 at Beta-secretase 1 [3] stood at 4.9 µM.

In the case of `CC(C)(C)OC(=O)N1CCN(c2cccc3c2NC(=O)[C@H](c2ccccc2)N=C3c2ccccc2)CC1`, at Beta-secretase 1 [3], the IC50 came to 35 µM.

For `CC(C)(C)OC(=O)N1CCN(c2cccc(C(=O)c3ccccc3)c2NC(=O)[C@@H](NC(=O)OCc2ccccc2)c2ccccc2)CC1`, the inhibition result at Beta-secretase 1 [4] is “inactive”.

Turning to `O=C1Nc2ccccc2C(c2ccccc2)=N[C@H]1C(O)CN1CCNCC1` (stereo partly drawn), the IC50 on Beta-secretase 1 [3] came to 12.5 µM.

On to `CC(C)(C)OC(=O)N1CCN(c2cccc3c2NC(=O)[C@@H](c2ccccc2)N=C3c2ccccc2)CC1`, for which the IC50 on Beta-secretase 1 [3] was 43 µM.

Turning to `CC(C)(C)OC(=O)N1CCN(c2cccc3c2NC(=O)[C@H](Cc2ccccc2)N=C3c2ccccc2)CC1`, at Beta-secretase 1 [4], the inhibition result was “inactive”.

In the case of `O=C(N[C@H](C(=O)Nc1cc(C(CO)NCc2ccccc2)ccc1C(=O)c1ccccc1)c1ccccc1)OCc1ccccc1` (stereo partly drawn), the IC50 against Beta-secretase 1 [1] was above 1.2 µM; against Beta-secretase 1 [2], above 2.6 µM; at Beta-secretase 1 [3] it was 4.1 µM.

Take `O=C(N[C@H](C(=O)Nc1cc(C(O)CNCc2ccccc2)ccc1C(=O)c1ccccc1)c1ccccc1)OCc1ccccc1` (stereo partly drawn): the IC50 against Beta-secretase 1 [1] is above 1.2 µM; at Beta-secretase 1 [2], above 2.6 µM; at Beta-secretase 1 [3] it was 2.4 µM.

In the case of `O=C(N[C@@H](C(=O)Nc1cc(C(CO)NCc2ccccc2)ccc1C(=O)c1ccccc1)c1ccccc1)OCc1ccccc1` (stereo partly drawn), the IC50 on Beta-secretase 1 [3] came out at 4.2 µM.

With `O=C1Nc2cc(C(CO)NCc3ccccc3)ccc2C(c2ccccc2)=N[C@H]1c1ccccc1` (stereo partly drawn), the IC50 at Beta-secretase 1 [1] was above 11 µM; on Beta-secretase 1 [2], above 22 µM.

As to `CC(C)(C)OC(=O)N1CCN(CC(O)c2ccc3c(c2)NC(=O)[C@@H](c2ccccc2)N=C3c2ccccc2)CC1` (stereo partly drawn), the inhibition entry on Beta-secretase 1 [4] is “inactive”.

Turning to `O=C1Nc2cc(C(CO)NCc3ccccc3)ccc2C(c2ccccc2)=N[C@@H]1c1ccccc1` (stereo partly drawn), on Beta-secretase 1 [3], the IC50 was found to be 10.9 µM.

As to `O=C1Nc2c(cccc2N2CCNCC2)C(c2ccccc2)=N[C@H]1c1ccccc1`, the inhibition entry on Beta-secretase 1 [4] is “inactive”.

As to `CC(C)(C)OC(=O)N1CCN(c2cccc3c2NC(=O)[C@H](CCc2ccccc2)N=C3c2ccccc2)CC1`, the inhibition result on Beta-secretase 1 [4] is “inactive”.

For `O=C1Nc2cc(C(O)CNCc3ccccc3)ccc2C(c2ccccc2)=N[C@@H]1c1ccccc1` (stereo partly drawn), on Beta-secretase 1 [4], the inhibition result was “inactive”.

Values taken from ChEMBL document CHEMBL2311364, “Novel peptidomimetics as BACE-1 inhibitors: synthesis, molecular modeling, and biological studies” (Bioorg Med Chem Lett, 2013).
